Experimental data: patent publication US9891156B2, “Method for determining the permeation of a permeant through a membrane” (Paraytec Limited, priority 2014, dated 2018)

Assay: Rapid in vitro release testing of ibuprofen gel by UV/VIS area imaging
Assay type: in vitro ADME
Conditions: calculated comparison value; extinction coefficient 1.5 dm^3 g^−1 cm^−1
Excerpt: Measurements were made by switching the LED source of UV irradiation 51 and the LED source of VIS irradiation 52 and imaging at a frame rate of 2 Hz. […] Imaging is typically carried out alternately at a first wavelength where the API absorbs light (280 or 255 nm) and a second wavelength where there is no absorption (505 nm). […] The sample assembly 20 further comprises a fused silica elongate cuvette 22 which is cuboidal and open at the upper end with a width of 7 mm, a depth of 4 mm and a wall thickness of 1 mm. […] The fused silica elongate cuvette 22 is inserted vertically inside the elongate receptor cell 24 and is capped at a lower end with a membrane 21 which is glued in place. […] The sample assembly 20 further comprises an elongate substantially planar holder 30 for the API formulation 13 (the donor phase) which is slidably inserted in the fused silica elongate cuvette 22. The elongate substantially planar holder 30 projects beyond an upper end 22a of the fused silica elongate cuvette 22 to facilitate removal. […] The vertical bar (z direction) was used for measurement of the absorbance profiles spanning the donor phase, the membrane and the receptor phase (see FIGS. 3B to D).

Compound: CC(C)Cc1ccc(C(C)C(=O)O)cc1 (stereo not shown) [ibuprofen]
- Depletion value of the donor phase calculated from path length, ibuprofen concentration in the gel and literature extinction coefficient: −1.5 AU
